In PMC9516332 (Frontiers in Oncology, 2022):
Where two headings read alike, the source gives them in different places.

Test system: 134 cancer cell lines
Assay: Cell viability assay (ATPlite, 72 hours), IC50 on cancer cell line panel

## Cn1cc(-c2cc3c(N4CCN(c5ncc([C@@](C)(N)c6ccc(F)cc6)cn5)CC4)ncnn3c2)cn1 [avapritinib]
HEC-6, read-out: IC50 in cell proliferation assay
  IC50: 20.9 µM
Homo sapiens, 769-P, read-out: IC50 in cell proliferation assay
  IC50: 3 µM
Homo sapiens, 786-0, read-out: IC50 in cell proliferation assay
  IC50: 11.8 µM
Homo sapiens, A 172, read-out: IC50 in cell proliferation assay
  IC50: 5.91 µM
Homo sapiens, A204, read-out: IC50 in cell proliferation assay
  IC50: 0.171 µM
Homo sapiens, A498, read-out: IC50 in cell proliferation assay
  IC50: 15.4 µM
Homo sapiens, A549, read-out: IC50 in cell proliferation assay
  IC50: 20.5 µM
Homo sapiens, A704, read-out: IC50 in cell proliferation assay
  IC50: 22.7 µM
Homo sapiens, A-375, read-out: IC50 in cell proliferation assay
  IC50: 17.8 µM
Homo sapiens, A-427, read-out: IC50 in cell proliferation assay
  IC50: 8.02 µM
Homo sapiens, ACHN, read-out: IC50 in cell proliferation assay
  IC50: 14.8 µM
Homo sapiens, AN3-CA, read-out: IC50 in cell proliferation assay
  IC50: 18.1 µM
Homo sapiens, ASPC1, read-out: IC50 in cell proliferation assay
  IC50: > 31.6 µM
Homo sapiens, AU565, read-out: IC50 in cell proliferation assay
  IC50: 10.1 µM
Homo sapiens, BT-20, read-out: IC50 in cell proliferation assay
  IC50: 27.7 µM
Homo sapiens, BT-474, read-out: IC50 in cell proliferation assay
  IC50: 7.71 µM
Homo sapiens, BT-549, read-out: IC50 in cell proliferation assay
  IC50: 5.18 µM
Homo sapiens, BXPC-3, read-out: IC50 in cell proliferation assay
  IC50: 0.292 µM
Homo sapiens, C-33-A, read-out: IC50 in cell proliferation assay
  IC50: 4.64 µM
Homo sapiens, CAL-27, read-out: IC50 in cell proliferation assay
  IC50: 11 µM
Homo sapiens, CCF-STTG1, read-out: IC50 in cell proliferation assay
  IC50: 5.69 µM
Homo sapiens, CCRF-CEM, read-out: IC50 in cell proliferation assay
  IC50: 8.33 µM
Homo sapiens, COLO 205, read-out: IC50 in cell proliferation assay
  IC50: 10.7 µM
Homo sapiens, COLO-829, read-out: IC50 in cell proliferation assay
  IC50: 10.1 µM
Homo sapiens, DLD-1, read-out: IC50 in cell proliferation assay
  IC50: 15.2 µM
Homo sapiens, DU-145, read-out: IC50 in cell proliferation assay
  IC50: 9.13 µM
Homo sapiens, DU-4475, read-out: IC50 in cell proliferation assay
  IC50: 7.09 µM
Homo sapiens, Daoy, read-out: IC50 in cell proliferation assay
  IC50: 27.8 µM
Homo sapiens, DoTc2-4510, read-out: IC50 in cell proliferation assay
  IC50: 16.3 µM
Homo sapiens, EOL1, read-out: IC50 in cell proliferation assay
  IC50: 0.000567 µM
Homo sapiens, FaDu, read-out: IC50 in cell proliferation assay
  IC50: 9.3 µM
Homo sapiens, G-361, read-out: IC50 in cell proliferation assay
  IC50: 9.28 µM
Homo sapiens, HCC827, read-out: IC50 in cell proliferation assay
  IC50: 14 µM
Homo sapiens, HCC4006, read-out: IC50 in cell proliferation assay
  IC50: 8.01 µM
Homo sapiens, HCT-15, read-out: IC50 in cell proliferation assay
  IC50: 6.36 µM
Homo sapiens, HCT-116, read-out: IC50 in cell proliferation assay
  IC50: 8.76 µM
Homo sapiens, HEC-1, read-out: IC50 in cell proliferation assay
  IC50: 17 µM
Homo sapiens, HEC-1B, read-out: IC50 in cell proliferation assay
  IC50: 8.74 µM
Homo sapiens, HL-60, read-out: IC50 in cell proliferation assay
  IC50: 5.2 µM
Homo sapiens, HT, read-out: IC50 in cell proliferation assay
  IC50: 22.9 µM
Homo sapiens, HT-1080, read-out: IC50 in cell proliferation assay
  IC50: 9.14 µM
Homo sapiens, Hs746T, read-out: IC50 in cell proliferation assay
  IC50: 1.81 µM
Homo sapiens, Hs-578T, read-out: IC50 in cell proliferation assay
  IC50: 16.8 µM
Homo sapiens, HuTu80, read-out: IC50 in cell proliferation assay
  IC50: 5.13 µM
Homo sapiens, J82, read-out: IC50 in cell proliferation assay
  IC50: 24.4 µM
Homo sapiens, Jurkat E6.1, read-out: IC50 in cell proliferation assay
  IC50: 4.07 µM
Homo sapiens, K562, read-out: IC50 in cell proliferation assay
  IC50: 6.03 µM
Homo sapiens, KATO III, read-out: IC50 in cell proliferation assay
  IC50: 6.66 µM
Homo sapiens, KG-1, read-out: IC50 in cell proliferation assay
  IC50: 1.92 µM
Homo sapiens, KLE, read-out: IC50 in cell proliferation assay
  IC50: 5.61 µM
Homo sapiens, KMS-11, read-out: IC50 in cell proliferation assay
  IC50: 6.59 µM
Homo sapiens, KU812, read-out: IC50 in cell proliferation assay
  IC50: 3.11 µM
Homo sapiens, Kasumi 1, read-out: IC50 in cell proliferation assay
  IC50: 0.075 µM
Homo sapiens, LC-2-ad, read-out: IC50 in cell proliferation assay
  IC50: 4.91 µM
Homo sapiens, LNCaP-Clone-FGC, read-out: IC50 in cell proliferation assay
  IC50: 16 µM
Homo sapiens, LS174T, read-out: IC50 in cell proliferation assay
  IC50: 6.55 µM
Homo sapiens, LS-411N, read-out: IC50 in cell proliferation assay
  IC50: 10.8 µM
Homo sapiens, LoVo, read-out: IC50 in cell proliferation assay
  IC50: 6.42 µM
Homo sapiens, MCF7, read-out: IC50 in cell proliferation assay
  IC50: 17.3 µM
Homo sapiens, MDA-MB-231, read-out: IC50 in cell proliferation assay
  IC50: 8.5 µM
